Source: patent US20260234125A1, “CYCLIC AMINE DERIVATIVE, AND COMPOSITION AND USE THEREOF” (SHANGHAI JINGXIN BIOMEDICAL CO., LTD., priority 2023, published 2026)

Each compound was assayed against T1, human Apo(a) protein (Homo sapiens, UniProt P08519) (assay: BLI affinity of compounds to Apo(a)). Conditions: biotinylated apolipoprotein(a) on SA sensor, compound 100 nM.
T1 construct: biotin (biotinylated)
Assay type: binding
Protocol: • 1. Experimental purpose: The purpose of this test is to test the affinity of the compounds of the present disclosure to Apo(a) • 2. Experimental instruments and reagents: • Molecular interaction analyzer (ForteBio Octet red 96e), • SA sensor (ForteBio), • 96-well plates were purchased from Greine, • 3. Experimental methods:
Prepared two 96-well plates, one as a sample plate and another as a pre-wett plate, curing buffer was added to a 200 μL well of the pre-wet plate, and the SA sensor was pre-wetted for at least ten minutes. All reagents and samples were added to another black sample plate, after the sample addition was completed, the sensor plate and the sample plate were placed into the ForteBio Octet red 96e instrument. The program was set up in sequence for detection. The experimental temperature was set to 30° C. and the acquisition frequency was set at 5.0 Hz. The biosensor was run in 1×PBS, pH7.4, 0.02% Tween-20, 0.1% BSA in the first column for 60 seconds, which was the baseline step. Biotinylated apolipoprotein(a) was diluted to 40 μg/ml with 1×PBS, pH7.4, 0.02% Tween-20, 0.1% BSA, and added to the second column, where it was run for a period of time until the amount of curing on the sensor reaches 2.0 nm. The biosensor was run in 1×PBS, pH7.4, 0.02% Tween-20, 0.1% BSA in the third column for 60 seconds, which was the baseline step. The compound was diluted to 100 nM with 1×PBS, pH7.4, 0.02% Tween-20, 0.1% BSA, and added to the fourth column, where the sensor was run for 60 seconds. The sensor was run in 1×PBS, pH7.4, 0.02% Tween-20, 0.1% BSA in the third column for 120 seconds, during this process, the compound dissociated from the sensor. The affinity constant KD reflects the size of the interaction binding ability. When the concentration of the analyte is at KD, the equilibrium signal Req is half of Rmax.

T1 sequence (P08519 20-2040): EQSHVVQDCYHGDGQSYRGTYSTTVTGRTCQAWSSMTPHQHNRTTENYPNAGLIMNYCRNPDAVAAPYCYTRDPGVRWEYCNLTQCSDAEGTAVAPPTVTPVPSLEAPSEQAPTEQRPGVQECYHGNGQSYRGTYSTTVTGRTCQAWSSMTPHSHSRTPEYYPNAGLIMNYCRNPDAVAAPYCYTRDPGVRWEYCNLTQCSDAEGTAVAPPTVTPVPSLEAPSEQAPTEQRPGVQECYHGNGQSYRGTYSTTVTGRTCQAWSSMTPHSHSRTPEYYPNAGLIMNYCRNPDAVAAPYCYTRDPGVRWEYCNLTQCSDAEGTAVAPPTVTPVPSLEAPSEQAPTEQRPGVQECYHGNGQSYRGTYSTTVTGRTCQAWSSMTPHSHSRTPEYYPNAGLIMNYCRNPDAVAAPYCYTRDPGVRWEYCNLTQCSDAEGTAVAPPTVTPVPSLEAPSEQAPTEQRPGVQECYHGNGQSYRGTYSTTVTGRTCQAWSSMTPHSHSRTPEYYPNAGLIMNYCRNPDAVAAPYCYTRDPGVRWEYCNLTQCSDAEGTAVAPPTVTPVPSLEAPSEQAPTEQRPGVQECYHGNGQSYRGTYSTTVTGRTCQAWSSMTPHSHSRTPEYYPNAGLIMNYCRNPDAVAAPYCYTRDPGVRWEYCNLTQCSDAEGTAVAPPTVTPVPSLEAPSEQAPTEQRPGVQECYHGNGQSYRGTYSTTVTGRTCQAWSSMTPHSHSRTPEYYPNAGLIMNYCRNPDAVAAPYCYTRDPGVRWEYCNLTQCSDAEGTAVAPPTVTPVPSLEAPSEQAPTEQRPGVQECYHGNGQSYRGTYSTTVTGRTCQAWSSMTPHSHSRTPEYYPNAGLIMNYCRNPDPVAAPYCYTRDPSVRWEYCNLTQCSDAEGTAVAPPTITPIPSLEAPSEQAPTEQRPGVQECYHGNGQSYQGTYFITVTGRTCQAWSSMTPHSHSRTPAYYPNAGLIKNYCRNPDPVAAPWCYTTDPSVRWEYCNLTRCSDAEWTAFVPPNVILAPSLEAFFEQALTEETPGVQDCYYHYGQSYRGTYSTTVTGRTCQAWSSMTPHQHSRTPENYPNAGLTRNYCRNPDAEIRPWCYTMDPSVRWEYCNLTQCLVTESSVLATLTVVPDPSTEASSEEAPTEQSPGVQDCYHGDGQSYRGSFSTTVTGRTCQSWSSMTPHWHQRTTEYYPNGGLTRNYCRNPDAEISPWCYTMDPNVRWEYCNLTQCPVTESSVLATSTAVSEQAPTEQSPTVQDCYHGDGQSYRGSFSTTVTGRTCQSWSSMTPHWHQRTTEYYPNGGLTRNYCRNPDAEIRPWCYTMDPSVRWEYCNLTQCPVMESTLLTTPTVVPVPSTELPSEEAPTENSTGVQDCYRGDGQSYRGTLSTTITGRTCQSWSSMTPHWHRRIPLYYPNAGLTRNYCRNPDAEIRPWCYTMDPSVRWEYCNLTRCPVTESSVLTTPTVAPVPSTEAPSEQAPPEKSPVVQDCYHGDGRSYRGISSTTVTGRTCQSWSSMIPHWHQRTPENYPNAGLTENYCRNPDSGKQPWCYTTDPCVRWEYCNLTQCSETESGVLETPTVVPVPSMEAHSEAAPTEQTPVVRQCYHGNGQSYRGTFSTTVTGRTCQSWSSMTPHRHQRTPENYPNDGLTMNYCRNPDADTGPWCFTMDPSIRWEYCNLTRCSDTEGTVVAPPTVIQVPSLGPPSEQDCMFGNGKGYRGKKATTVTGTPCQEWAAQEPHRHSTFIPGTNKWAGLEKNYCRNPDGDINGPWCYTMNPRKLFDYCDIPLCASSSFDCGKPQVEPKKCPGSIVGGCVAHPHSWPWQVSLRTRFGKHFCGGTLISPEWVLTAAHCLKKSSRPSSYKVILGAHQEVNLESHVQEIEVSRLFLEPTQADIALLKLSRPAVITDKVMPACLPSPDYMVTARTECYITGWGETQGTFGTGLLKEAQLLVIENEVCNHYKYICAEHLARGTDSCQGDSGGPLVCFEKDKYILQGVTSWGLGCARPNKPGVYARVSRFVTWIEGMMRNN

Compound	Kd [nM]
O=C(O)[C@@H](Cc1cccc(COC2CC(OCc3cccc(C[C@H](C(=O)O)[C@H]4CCNC4)c3)CC(OCc3cccc(C[C@H](C(=O)O)[C@H]4CCNC4)c3)C2)c1)[C@H]1CCNC1 (some centres unmarked) [Example 6]	19.9
O=C(O)[C@@H](Cc1cccc(Oc2nc(Oc3cccc(C[C@H](C(=O)O)[C@H]4CCNC4)c3)nc(Oc3cccc(C[C@H](C(=O)O)[C@H]4CCNC4)c3)n2)c1)[C@H]1CCNC1 [Example 7]	8.06
O=C(NCCN(CCNC(=O)c1cccc(C[C@H](C(=O)O)[C@H]2CCNC2)c1)CCNC(=O)c1cccc(C[C@H](C(=O)O)[C@H]2CCNC2)c1)c1cccc(C[C@H](C(=O)O)[C@H]2CCNC2)c1 [Example 8]	18.7
O=C(O)[C@@H](Cc1cccc(OCc2cc(COc3cccc(C[C@H](C(=O)O)[C@H]4CCNC4)c3)cc(COc3cccc(C[C@H](C(=O)O)[C@H]4CCNC4)c3)c2)c1)[C@H]1CCNC1 [Example 10]	25.3
O=C(O)[C@@H](Cc1cccc(CN(Cc2cccc(C[C@H](C(=O)O)[C@H]3CCNC3)c2)Cc2cccc(C[C@H](C(=O)O)[C@H]3CCNC3)c2)c1)C1CNC1 [Example 11]	14.2
